# In PubChem BioAssay AID1963868 (Molecular Pharmacology Branch, DTP, NCI, 2024):
# pIC50: −log10 of the molar value.
# System: KRAS PDC tumor spheroids (HUVEC+MSC), viability
# Assay: Anticancer human tumor 254851-301-R-J1-PDC patient-derived colon carcinoma cell line growth inhibition [KRAS2]
# Settings: for pIC50: curve of first compound; for viability, T/C: stronger effect = lower value
# Outline: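 KRAS-mutant tumor cells were grown as spheroids with HUVEC endothelial cells and human MSCs as stroma. Targeted agents were tested alone and with KRAS pathway inhibitors. Doses started at or near clinical Cmax, or 10 microM, descending half-log.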
# [1] = second compound 0.1 µM, first compound 0.0316 µM
# [2] = second compound 0.1 µM, first compound 0.1 µM
# [3] = second compound 0.1 µM, first compound 0.316 µM
# [4] = second compound 0.1 µM, first compound 1 µM
# [5] = second compound 0.1 µM, first compound 3.16 µM
# [6] = second compound 0.1 µM, first compound 10 µM
# [7] = second compound 0.316 µM, first compound 0.0316 µM
# [8] = second compound 0.316 µM, first compound 0.1 µM
# [9] = second compound 0.316 µM, first compound 0.316 µM
# [10] = second compound 0.316 µM, first compound 1 µM
# [11] = second compound 0.316 µM, first compound 3.16 µM
# [12] = second compound 0.316 µM, first compound 10 µM
# [13] = second compound 1 µM, first compound 0.0316 µM
# [14] = second compound 1 µM, first compound 0.1 µM
# [15] = second compound 1 µM, first compound 0.316 µM
# [16] = second compound 1 µM, first compound 1 µM
# [17] = second compound 1 µM, first compound 3.16 µM
# [18] = second compound 1 µM, first compound 10 µM
# [19] = second compound 3.16 µM, first compound 0.0316 µM
# [20] = second compound 3.16 µM, first compound 0.1 µM
# [21] = second compound 3.16 µM, first compound 0.316 µM
# [22] = second compound 3.16 µM, first compound 1 µM
# [23] = second compound 3.16 µM, first compound 3.16 µM
# [24] = second compound 3.16 µM, first compound 10 µM
# [25] = second compound 10 µM, first compound 0.0316 µM
# [26] = second compound 10 µM, first compound 0.1 µM
# [27] = second compound 10 µM, first compound 0.316 µM
# [28] = second compound 10 µM, first compound 1 µM
# [29] = second compound 10 µM, first compound 3.16 µM
# [30] = second compound 10 µM, first compound 10 µM
# 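Also: spheroids exposed to compounds for seven days before readout.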
# 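For viability, T/C in this document: 100% = DMSO vehicle control luminescence of the spheroids.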
smiles,measurement,setting,value
CCNC(=O)CC1N=C(c2ccc(Cl)cc2)c2cc(OC)ccc2-n2c(C)nnc21 (stereo not given) + C=CC(=O)N1CCN(c2nc(=O)n(-c3c(C)ccnc3C(C)C)c3nc(-c4c(O)cccc4F)c(F)cc23)C(C)C1,pIC50,second compound 0.1 µM,< 5.00
same,pIC50,second compound 0.316 µM,< 5.00
same,pIC50,second compound 1 µM,< 5.00
same,pIC50,second compound 3.16 µM,< 5.00
same,pIC50,second compound 10 µM,< 5.00
same,"viability, T/C",[1],107%
same,"viability, T/C",[2],99.6%
same,"viability, T/C",[3],96.8%
same,"viability, T/C",[4],91%
same,"viability, T/C",[5],81%
same,"viability, T/C",[6],77.3%
same,"viability, T/C",[7],95%
same,"viability, T/C",[8],86.4%
same,"viability, T/C",[9],95.2%
same,"viability, T/C",[10],76.2%
same,"viability, T/C",[11],82.2%
same,"viability, T/C",[12],65.1%
same,"viability, T/C",[13],80.3%
same,"viability, T/C",[14],94.8%
same,"viability, T/C",[15],86.3%
same,"viability, T/C",[16],80.7%
same,"viability, T/C",[17],89.3%
same,"viability, T/C",[18],74.2%
same,"viability, T/C",[19],72.3%
same,"viability, T/C",[20],76.1%
same,"viability, T/C",[21],97%
same,"viability, T/C",[22],84.5%
same,"viability, T/C",[23],79.9%
same,"viability, T/C",[24],59.4%
same,"viability, T/C",[25],105%
same,"viability, T/C",[26],96.2%
same,"viability, T/C",[27],95.6%
same,"viability, T/C",[28],91.2%
same,"viability, T/C",[29],86%
same,"viability, T/C",[30],67.8%
CC(=O)OC12COC1CC(O)C1(C)C(=O)C(O)C3=C(C)C(OC(=O)C(O)C(NC(=O)OC(C)(C)C)c4ccccc4)CC(O)(C(OC(=O)c4ccccc4)C21)C3(C)C (stereo not given) + C=CC(=O)N1CCN(c2nc(OCC3CCCN3C)nc3c2CCN(c2cccc4cccc(C)c24)C3)CC1CC#N,pIC50,second compound 0.0316 µM,6.69
same,pIC50,second compound 0.1 µM,6.70
same,pIC50,second compound 0.316 µM,6.79
same,pIC50,second compound 1 µM,6.85
same,pIC50,second compound 3.16 µM,6.69
same,"viability, T/C","second compound 0.0316 µM, first compound 0.01 µM",102%
same,"viability, T/C","second compound 0.0316 µM, first compound 0.0316 µM",95.9%
same,"viability, T/C","second compound 0.0316 µM, first compound 0.1 µM",69.3%
same,"viability, T/C","second compound 0.0316 µM, first compound 0.316 µM",38.4%
same,"viability, T/C","second compound 0.0316 µM, first compound 1 µM",29%
same,"viability, T/C","second compound 0.0316 µM, first compound 3.16 µM",26.1%
same,"viability, T/C","second compound 0.1 µM, first compound 0.01 µM",99.1%
same,"viability, T/C",[1],91.2%
same,"viability, T/C",[2],61.4%
same,"viability, T/C",[3],43%
same,"viability, T/C",[4],27.3%
same,"viability, T/C",[5],25.6%
same,"viability, T/C","second compound 0.316 µM, first compound 0.01 µM",98.1%
same,"viability, T/C",[7],88%
same,"viability, T/C",[8],60.8%
same,"viability, T/C",[9],35.4%
same,"viability, T/C",[10],26.5%
same,"viability, T/C",[11],24.3%
same,"viability, T/C","second compound 1 µM, first compound 0.01 µM",93%
same,"viability, T/C",[13],94.5%
same,"viability, T/C",[14],56.2%
same,"viability, T/C",[15],34%
same,"viability, T/C",[16],24.4%
same,"viability, T/C",[17],22.9%
same,"viability, T/C","second compound 3.16 µM, first compound 0.01 µM",94.3%
same,"viability, T/C",[19],86.7%
same,"viability, T/C",[20],69.1%
same,"viability, T/C",[21],38.5%
same,"viability, T/C",[22],24.2%
same,"viability, T/C",[23],23.7%
CC(C)NCC(C(=O)N1CCN(c2ncnc3c2C(C)CC3O)CC1)c1ccc(Cl)cc1 (stereo not given) + CC1OCC2(CCN(c3cnc(Sc4ccnc(N)c4Cl)c(N)n3)CC2)C1N,pIC50,second compound 0.1 µM,< 5.00
same,pIC50,second compound 0.316 µM,< 5.00
same,pIC50,second compound 1 µM,< 5.00
same,pIC50,second compound 3.16 µM,< 5.00
same,pIC50,second compound 10 µM,< 5.00
same,"viability, T/C",[1],104%
same,"viability, T/C",[2],97.1%
same,"viability, T/C",[3],103%
same,"viability, T/C",[4],93.2%
same,"viability, T/C",[5],102%
same,"viability, T/C",[6],85.3%
same,"viability, T/C",[7],93%
same,"viability, T/C",[8],86.6%
same,"viability, T/C",[9],75.4%
same,"viability, T/C",[10],79.6%
same,"viability, T/C",[11],79.5%
same,"viability, T/C",[12],88.4%
same,"viability, T/C",[13],72.4%
same,"viability, T/C",[14],72.4%
same,"viability, T/C",[15],83.1%
same,"viability, T/C",[16],75.6%
same,"viability, T/C",[17],69.6%
same,"viability, T/C",[18],68.5%
same,"viability, T/C",[19],58.4%
same,"viability, T/C",[20],68.9%
same,"viability, T/C",[21],64.9%
same,"viability, T/C",[22],66.4%
same,"viability, T/C",[23],67.4%
same,"viability, T/C",[24],70.8%
same,"viability, T/C",[25],58.6%
same,"viability, T/C",[26],64.5%
same,"viability, T/C",[27],65.7%
same,"viability, T/C",[28],60.9%
same,"viability, T/C",[29],55.9%
same,"viability, T/C",[30],58.4%
